Source: the supplement of paper PMC10307832

Tests used:
Experiment in all cases: relative viability (nuclei count vs DMSO), 5 days (fraction); higher = more cells survive
[1] = compound: CCN(CC)CCNC(=O)c1c(C)[nH]c(/C=C2\C(=O)Nc3ccc(F)cc32)c1C [Sunitinib] + CC(=O)c1c(C)c2cnc(Nc3ccc(N4CCNCC4)cn3)nc2n(C2CCCC2)c1=O [Palbociclib] (partner 0.5 µM)
In short: (§1)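 One day after seeding in 1536-well plates, lung cancer cell lines were dosed by pin tool. Dosing was either single-drug or a fixed anchor-drug dose plus five library-drug doses (not always all listed) in √10 steps. After 5 days, nuclei were stained in one fix-and-stain step and counted on 4× images, and relative viability is the nuclei count of treated wells over that of vehicle wells, given as the median of duplicate plates.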

[2] = compound: CCN(CC)CCNC(=O)c1c(C)[nH]c(/C=C2\C(=O)Nc3ccc(F)cc32)c1C [Sunitinib] + CS(=O)(=O)N1CCN(Cc2cc3nc(-c4cccc5[nH]ncc45)nc(N4CCOCC4)c3s2)CC1 [Pictilisib] (partner 1 µM)
In short: as §1

[3] = compound: CCN(CC)CCNC(=O)c1c(C)[nH]c(/C=C2\C(=O)Nc3ccc(F)cc32)c1C [Sunitinib] + N=C(N)NC(=N)NCCc1ccccc1 [Phenformin] (partner 250 µM)
In short: as §1

[4] = compound: CCN(CC)CCNC(=O)c1c(C)[nH]c(/C=C2\C(=O)Nc3ccc(F)cc32)c1C [Sunitinib] + Nc1ncn([C@H]2C[C@H](O)[C@@H](CO)O2)c(=O)n1 [Decitabine] (partner 2 µM)
In short: as §1

| Cell Line | relative viability ([1]; first compound 0.02 µM) | relative viability ([1]; first compound 0.06325 µM) | relative viability ([1]; first compound 0.2 µM) | relative viability ([1]; first compound 0.6325 µM) | relative viability ([1]; first compound 2 µM) | relative viability ([2]; first compound 0.02 µM) | relative viability ([2]; first compound 0.06325 µM) | relative viability ([2]; first compound 0.2 µM) | relative viability ([2]; first compound 0.6325 µM) | relative viability ([2]; first compound 2 µM) | relative viability ([3]; first compound 0.02 µM) | relative viability ([3]; first compound 0.2 µM) | relative viability ([3]; first compound 0.6325 µM) | relative viability ([3]; first compound 2 µM) | relative viability ([4]; first compound 0.02 µM) | relative viability ([4]; first compound 0.06325 µM) | relative viability ([4]; first compound 0.2 µM) | relative viability ([4]; first compound 0.6325 µM) | relative viability ([4]; first compound 2 µM) | relative viability ([3]; first compound 0.06325 µM) |
| --- | --- | --- | --- | --- | --- | --- | --- | --- | --- | --- | --- | --- | --- | --- | --- | --- | --- | --- | --- | --- |
| NCI-H23 | 0.469 | 0.599 | 0.488 | 0.532 | 0.49 | 0.498 | 0.594 | 0.483 | 0.468 | 0.504 | 0.753 | 0.93 | 0.878 | 0.763 | 0.293 | 0.351 | 0.328 | 0.307 | 0.329 |  |
| NCI-H2405 | 0.495 | 0.581 | 0.546 | 0.494 | 0.587 | 0.382 | 0.49 | 0.502 | 0.524 | 0.474 | 0.399 | 0.406 | 0.395 | 0.406 | 0.811 | 0.8 | 0.761 | 0.754 | 0.761 | 0.391 |
| SK-LU-1 | 0.381 | 0.4 | 0.4 | 0.411 | 0.356 | 0.538 | 0.66 | 0.603 | 0.53 | 0.483 | 0.46 | 0.586 | 0.523 | 0.409 | 0.571 | 0.688 | 0.635 | 0.651 | 0.603 | 0.63 |
| PC-3 [JPC-3] | 0.539 | 0.561 | 0.566 | 0.56 | 0.602 | 0.819 | 0.768 | 0.841 | 0.685 | 0.694 | 0.478 | 0.471 | 0.502 | 0.468 | 0.89 | 0.788 |  | 0.79 | 0.764 | 0.484 |
| NCI-H727 | 0.598 | 0.697 | 0.671 | 0.616 | 0.667 | 0.278 | 0.417 | 0.542 | 0.325 | 0.344 | 0.475 | 0.649 | 0.67 | 0.538 | 0.837 | 0.836 | 0.857 | 0.754 | 0.889 | 0.733 |
| EKVX | 0.423 | 0.453 | 0.508 | 0.403 | 0.463 | 0.456 | 0.437 | 0.578 | 0.495 | 0.577 | 0.242 | 0.236 | 0.256 | 0.248 | 0.352 | 0.384 | 0.45 | 0.382 | 0.412 | 0.234 |
| RERF-LC-KJ | 1.07 | 1.05 | 1.03 | 0.996 | 1.21 | 0.642 | 0.507 | 0.51 | 0.468 | 0.528 | 0.422 | 0.48 | 0.411 | 0.404 | 0.713 | 0.743 | 0.651 | 0.683 | 0.777 | 0.407 |
| NCI-H1355 | 0.41 | 0.393 | 0.44 | 0.382 | 0.393 | 0.431 | 0.448 | 0.477 | 0.399 | 0.447 | 0.441 | 0.473 | 0.482 | 0.432 | 0.369 | 0.381 | 0.375 | 0.365 | 0.345 | 0.453 |
| ChaGo-K-1 | 0.919 | 0.918 | 0.945 | 0.933 | 0.801 | 0.766 | 0.786 | 0.774 | 0.624 | 0.756 | 0.409 | 0.508 | 0.516 | 0.488 | 0.511 | 0.485 | 0.533 | 0.537 | 0.555 | 0.543 |
| LK-2 | 0.563 |  | 0.681 | 0.586 | 0.642 | 0.505 | 0.543 | 0.558 | 0.573 | 0.465 | 0.224 | 0.406 | 0.494 | 0.249 | 0.238 | 0.409 | 0.299 | 0.316 | 0.279 | 0.427 |
| NCI-H2085 | 0.454 | 0.5 | 0.472 | 0.494 | 0.494 | 0.431 | 0.476 | 0.519 | 0.519 | 0.555 | 0.686 | 0.788 | 0.877 | 0.754 | 0.527 | 0.55 | 0.554 | 0.595 | 0.579 | 0.916 |
| NCI-H1563 |  |  |  |  |  | 0.637 | 0.641 | 0.695 | 0.653 | 0.643 | 0.661 | 0.738 |  | 0.706 |  |  |  |  |  | 0.707 |
| NCI-H1648 | 0.257 | 0.328 | 0.239 | 0.279 | 0.308 |  |  |  |  |  |  |  |  |  | 0.46 | 0.647 | 0.633 | 0.55 | 0.681 |  |
| CAL-12T | 0.416 | 0.427 | 0.46 | 0.493 | 0.473 | 0.47 | 0.58 | 0.431 | 0.628 | 0.414 | 0.515 | 0.591 | 0.702 | 0.518 |  |  |  |  |  | 0.648 |
| Calu-6 |  |  |  |  |  | 0.901 | 0.887 | 1.13 | 1.09 | 0.93 |  |  |  |  |  |  |  |  |  |  |
| SW 900 | 0.517 | 0.592 | 0.576 | 0.587 | 0.604 |  |  |  |  |  | 0.579 | 0.641 | 0.894 | 0.581 | 0.44 | 0.364 | 0.394 | 0.407 | 0.433 | 0.79 |
| NCI-H1299 |  |  |  |  |  | 0.748 | 0.654 | 0.862 |  | 0.558 |  |  |  |  |  |  |  |  |  |  |
| IA-LM |  |  |  |  |  | 0.419 | 0.395 | 0.358 | 0.331 | 0.402 |  |  |  |  |  |  |  |  |  |  |
| NCI-H596 |  |  |  |  |  | 0.376 | 0.392 | 0.428 | 0.394 | 0.434 | 0.641 | 0.829 | 0.792 | 0.723 | 0.895 | 0.902 | 1.16 | 1.01 | 0.962 | 0.816 |
| NCI-H522 | 0.961 | 0.924 | 1.11 | 1.03 | 0.909 |  |  |  |  |  | 0.602 | 0.659 | 0.673 | 0.756 | 0.594 | 0.675 | 0.735 | 0.719 | 0.717 | 0.79 |
| NCI-H1703 |  |  |  |  |  | 0.215 | 0.208 | 0.245 | 0.224 | 0.204 |  |  |  |  |  |  |  |  |  |  |
| NCI-H2228 | 0.829 | 0.942 | 1.15 | 1.16 | 0.693 | 0.536 | 0.445 | 0.299 | 0.454 | 0.216 | 0.332 | 0.315 | 0.341 | 0.322 |  |  |  |  |  | 0.405 |
